Usually EC50 stands for the concentration that produces a half-maximal response.

The target of this assay is human mGlu5a receptor (Homo sapiens (Human), UniProt P41594). Briefly: Intracellular Ca2+ mobilization assay (mGlu5 PAM). The conditions noted are these: for EC50: HEK-293 cells stably transfected with human mGlu5a, L-glutamate added at EC20 after pre-incubation with test compound, read-out: EC50 (nM) mGlu5PAM; for Emax: maximal response in % of the maximal stimulatory effect obtained with saturating concentrations of L-glutamate, read-out: Eff. (%). It counts as cell-based. The essentials: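 HEK-293 cells stably expressing human mGlu5a at low level were loaded with Fluo-4AM and preincubated 10–30 min at 37 °C with 11-point half-log compound dilutions. L-glutamate was then added at its daily-determined EC20 (typically around 80 μM). Peak fluorescence minus basal, normalized to maximal glutamate effect, was fitted to give EC50, Hill slope and maximal response.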
For orientation: A change in cytosolic calcium serves as a functional read-out for many receptors and channels.

Chain of human mGlu5a receptor (P41594 other isoform, or with tags, fused parts or gaps): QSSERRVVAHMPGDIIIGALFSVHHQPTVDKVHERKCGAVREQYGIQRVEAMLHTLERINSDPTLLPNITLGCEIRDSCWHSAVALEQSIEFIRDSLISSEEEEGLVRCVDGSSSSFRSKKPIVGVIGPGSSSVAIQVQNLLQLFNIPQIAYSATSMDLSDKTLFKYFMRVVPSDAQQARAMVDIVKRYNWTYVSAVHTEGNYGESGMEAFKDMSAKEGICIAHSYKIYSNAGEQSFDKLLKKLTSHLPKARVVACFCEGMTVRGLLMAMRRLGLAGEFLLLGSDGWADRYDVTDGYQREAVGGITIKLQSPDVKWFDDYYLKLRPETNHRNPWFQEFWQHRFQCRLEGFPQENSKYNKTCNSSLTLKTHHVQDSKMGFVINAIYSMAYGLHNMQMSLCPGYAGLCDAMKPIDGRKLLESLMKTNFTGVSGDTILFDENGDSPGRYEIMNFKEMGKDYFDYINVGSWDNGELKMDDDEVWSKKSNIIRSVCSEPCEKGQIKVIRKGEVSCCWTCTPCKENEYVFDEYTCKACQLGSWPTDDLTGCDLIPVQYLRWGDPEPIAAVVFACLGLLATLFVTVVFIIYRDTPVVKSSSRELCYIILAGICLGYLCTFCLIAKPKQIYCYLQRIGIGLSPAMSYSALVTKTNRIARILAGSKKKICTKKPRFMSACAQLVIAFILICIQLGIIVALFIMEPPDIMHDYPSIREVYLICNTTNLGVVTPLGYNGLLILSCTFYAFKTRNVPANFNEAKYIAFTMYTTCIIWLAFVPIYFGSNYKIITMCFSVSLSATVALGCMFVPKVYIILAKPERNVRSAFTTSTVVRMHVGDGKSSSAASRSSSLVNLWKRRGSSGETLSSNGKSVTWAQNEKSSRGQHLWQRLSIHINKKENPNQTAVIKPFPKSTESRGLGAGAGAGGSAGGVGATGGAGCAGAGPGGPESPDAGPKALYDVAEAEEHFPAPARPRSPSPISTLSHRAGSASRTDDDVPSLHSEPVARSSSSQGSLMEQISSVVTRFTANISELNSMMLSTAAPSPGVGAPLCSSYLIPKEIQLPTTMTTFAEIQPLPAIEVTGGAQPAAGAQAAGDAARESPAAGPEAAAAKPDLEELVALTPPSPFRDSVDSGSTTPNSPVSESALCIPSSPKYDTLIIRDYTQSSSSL

As to `CC1(C)CN(c2ccc(C#Cc3cc(F)ccc3F)cn2)C(=O)O1` [Example 34, 3-[5-(2,5-Difluoro-phenylethynyl)-pyridin-2-yl]-5,5-dimethyl-oxazolidin-2-one], the EC50 worked out at 11 nM and the Emax is 38%.
On the same counts, the results for `CO[C@H]1C(=O)N(c2ccc(C#Cc3ccccc3)cn2)CC1(C)C` (single isomer, unassigned) [Example 62] are 12 nM and 86%.
Regarding `CN1C(=O)N(c2ccc(C#Cc3ccccc3)cn2)C2CCCCC21` (stereo not drawn) [Example 84, (3 aSR,7aRS)-(3aRS,7RS)-1-Methyl-3-(5-phenylethynyl-pyridin-2-yl)-octahydro-benzoimidazol-2-one], the concentration for a half-maximal effect (EC50) is 11 nM and the Emax was determined as 64%.
For `CC1(C)CN(c2ccc(C#Cc3ccc(F)cc3)cn2)C(=O)O1` [Example 32, 3-[5-(4-Fluoro-phenylethynyl)-pyridin-2-yl]-5,5-dimethyl-oxazolidin-2-one], the half-maximal effective concentration (EC50) turned out to be 19 nM and the Emax amounted to 60%.
On the same counts, the results for `CN1C(=O)N(c2ncc(C#Cc3ccc(F)c(F)c3)cn2)CC1(C)C` [Example 126, 1-[5-(3,4-Difluoro-phenylethynyl)-pyrimidin-2-yl]-3,4,4-trimethyl-imidazolidin-2-one] are 23 nM and 36%.
In the case of `CN1C(=O)N(c2ccc(C#Cc3cccc(F)c3)cn2)CC12CC2` [Example 113, 6-[5-(3-Fluoro-phenylethynyl)-pyridin-2-yl]-4-methyl-4,6-diaza-spiro[2.4]heptan-5-one], the EC50 was 51 nM and the Emax came out at 75%.
Turning to `CC1(C)CN(c2ccc(C#Cc3ccc(F)nc3)cn2)C(=O)O1` [Example 35, 3-[5-(6-Fluoro-pyridin-3-ylethynyl)-pyridin-2-yl]-5,5-dimethyl-oxazolidin-2-one], the EC50 was 54 nM and the Emax was determined as 52%.
Turning to `CN1C(=O)N(c2ncc(C#Cc3cccc(F)c3)cc2F)CC1(C)C` [Example 111], the EC50 turned out to be 32 nM and the Emax was 107%.
`COC1C(=O)N(c2ccc(C#Cc3ccc(F)cc3)cn2)CC1(C)C` (racemic) [Example 66, (RS)-1-[5-(4-Fluoro-phenylethynyl)-pyridin-2-yl]-3-methoxy-4,4-dimethyl-pyrrolidin-2-one]: the concentration giving a half-maximal response (EC50) was 75 nM and the Emax stood at 87%.
With `CC1(C)CC(=O)N(c2ncc(C#Cc3ccccc3)cc2F)C1` [Example 21, 1-(3-Fluoro-5-phenylethynyl-pyridin-2-yl)-4,4-dimethyl-pyrrolidin-2-one], the EC50 amounted to 30 nM and the Emax was 128%.
On the same counts, the results for `O=C1OC2COCCC2N1c1ccc(C#Cc2ccccc2)cn1` (stereo not drawn) [Example 94, (3aSR,7aRS)-(3aRS,7RS)-1-(5-Phenylethynyl-pyridin-2-yl)-hexahydro-pyrano[4,3-d]oxazol-2-one] are 60 nM and 84%.
Take `CN1C(=O)N(c2ccc(C#Cc3cnn(C)c3)cn2)CC1(C)C` [Example 50, 3,4,4-Trimethyl-1-[5-(1-methyl-1H-pyrazol-4-ylethynyl)-pyridin-2-yl]-imidazolidin-2-one]: the EC50 is 27 nM and the Emax worked out at 41%.
On the same counts, the results for `CN1C(=O)N(c2cnc(C#Cc3cccc(F)c3)cn2)CCC1(C)C` [Example 167, 1-(5-((3-Fluorophenyl)ethynyl)pyrazin-2-yl)-3,4,4-trimethyltetrahydropyrimidin-2(1H)-one] are 26 nM and 54%.
On the same counts, the results for `O=C1[C@H]2CCC[C@H]2N1c1ccc(C#Cc2cccnc2)cn1` (racemic) [Example 98, (1RS,5SR)-6-(5-Pyridin-3-ylethynyl-pyridin-2-yl)-6-aza-bicyclo[3.2.0]heptan-7-one] are 39 nM and 73%.
For `CC1(C)CCC(=O)N(c2ncc(C#Cc3ccccc3)cn2)C1` [Example 116, 5,5-Dimethyl-1-(5-phenylethynyl-pyrimidin-2-yl)-piperidin-2-one], the EC50 stood at 41 nM and the Emax was 101%.
On the same counts, the results for `CC1(C)CCN(c2ccc(C#Cc3cccc(Cl)c3)cn2)C(=O)C1` [Example 89, 5′-(3-Chloro-phenylethynyl)-4,4-dimethyl-3,4,5,6-tetrahydro-[1,2′]bipyridinyl-2-one] are 25 nM and 78%.
On the same counts, the results for `Cc1cccc(C#Cc2ccc(N3CC(C)(C)N(C)C3=O)nn2)c1` [Example 154, 3,4,4-Trimethyl-1-(6-(m-tolylethynyl)pyridazin-3-yl)imidazolidin-2-one] are 61 nM and 108%.
For `CN1C(=O)N(c2ncc(C#Cc3cc(F)ccc3F)cn2)CCC1(C)C` [Example 139, 5′-(2,5-Difluoro-phenylethynyl)-3,4,4-trimethyl-3,4,5,6-tetrahydro-[1,2′]bipyrimidinyl-2-one], the EC50 came out at 57 nM and the Emax stood at 54%.
On the same counts, the results for `CC1(C)CC(=O)N(c2ncc(C#Cc3ccc(F)cc3)cn2)C1` [Example 120, 1-[5-(4-Fluoro-phenylethynyl)-pyrimidin-2-yl]-4,4-dimethyl-pyrrolidin-2-one] are 92 nM and 81%.
On the same counts, the results for `COC[C@@H]1CN(c2ccc(C#Cc3ccccc3)cn2)C(=O)O1` (single isomer, unassigned) [Example 4, (5S or 5R)-5-Methoxymethyl-3-(5-phenylethynyl-pyridin-2-yl)-oxazolidin-2-one] are 278 nM and 98%.
On the same counts, the results for `CN1C(=O)N(c2ncc(C#Cc3cccc(F)c3)cn2)CCC1(C)C` [Example 138, 5′-(3-Fluoro-phenylethynyl)-3,4,4-trimethyl-3,4,5,6-tetrahydro-[1,2′]bipyrimidinyl-2-one] are 60 nM and 67%.
In the case of `CC1(C)CN(c2ccc(C#Cc3cncc(F)c3)cn2)C(=O)O1` [Example 29, 3-[5-(5-Fluoro-pyridin-3-ylethynyl)-pyridin-2-yl]-5,5-dimethyl-oxazolidin-2-one], the EC50 was 15 nM and the Emax is 45%.
Turning to `O=C1N(c2ccc(C#Cc3cccnc3)cn2)CC2CCCCN12` (racemic) [Example 70, (RS)-2-(5-Pyridin-3-ylethynyl-pyridin-2-yl)-hexahydro-imidazo[1,5-a]pyridin-3-one], the EC50 stood at 74 nM and the Emax was determined as 51%.
On the same counts, the results for `CC(C)(C)C1CN(c2ccc(C#Cc3ccccc3)cn2)C(=O)O1` (racemic) [Example 8, (5RS)-5-tert-Butyl-3-(5-phenylethynyl-pyridin-2-yl)-oxazolidin-2-one] are 17 nM and 62%.
On the same counts, the results for `CC1(C)CCN(c2ccc(C#Cc3cncc(Cl)c3)cn2)C(=O)C1` [Example 90, 5′-(5-Chloro-pyridin-3-ylethynyl)-4,4-dimethyl-3,4,5,6-tetrahydro-[1,2′]bipyridinyl-2-one] are 66 nM and 90%.
On the same counts, the results for `CN1C(=O)N(c2ccc(C#Cc3ccc(F)cc3)cn2)CC12CC2` [Example 112, 6-[5-(4-Fluoro-phenylethynyl)-pyridin-2-yl]-4-methyl-4,6-diaza-spiro[2.4]heptan-5-one] are 80 nM and 89%.
For the compound `CN1C(=O)N(c2ccc(C#Cc3ccccc3)cn2)CC1C1CCCC1` (racemic) [Example 45, (RS)-4-Cyclopentyl-3-methyl-1-(5-phenylethynyl-pyridin-2-yl)-imidazolidin-2-one], the EC50 turned out to be 57 nM and the Emax is 97%.
As to `CN1C(=O)N(c2ccc(C#Cc3cccc(Cl)c3)cn2)CC1(C)C` [Example 54, 1-[5-(3-Chloro-phenylethynyl)-pyridin-2-yl]-3,4,4-trimethyl-imidazolidin-2-one], the EC50 amounted to 32 nM and the Emax was determined as 47%.
Consider `CC1(C)CN(c2ccc(C#Cc3cccnc3)cn2)C(=O)O1` [Example 7, 5,5-Dimethyl-3-(5-pyridin-3-ylethynyl-pyridin-2-yl)-oxazolidin-2-one], for which the half-maximal effective concentration (EC50) was determined as 33 nM and the Emax worked out at 39%.
With `CN1C(=O)N(c2ccc(C#Cc3cccc(F)c3)nn2)[C@@H]2CCC[C@@H]21` (racemic) [Example 174, (3aSR,6aRS)-1-[6-(3-Fluoro-phenylethynyl)-pyridazin-3-yl]-3-methyl-hexahydro-cyclopentaimidazol-2-one], the EC50 stood at 12 nM and the Emax amounted to 56%.
`CN1C(=O)N(c2ccc(C#Cc3ccnnc3)cn2)CC1(C)C` [Example 52, 3,4,4-Trimethyl-1-(5-pyridazin-4-ylethynyl-pyridin-2-yl)-imidazolidin-2-one]: the EC50 stood at 34 nM and the Emax was found to be 32%.
On the same counts, the results for `O=C1OC2(CCC2)CN1c1ccc(C#Cc2ccccc2)cn1` [Example 10, 7-(5-Phenylethynyl-pyridin-2-yl)-5-oxa-7-aza-spiro[3.4]octan-6-one] are 25 nM and 109%.
On the same counts, the results for `CN1C(=O)N(c2ccc(C#Cc3ccccc3)cn2)CC1(C)C` [Example 16, 3,4,4-Trimethyl-1-(5-phenylethynyl-pyridin-2-yl)-imidazolidin-2-one] are 35 nM and 103%.
On the same counts, the results for `CN1C(=O)N(c2ncc(C#Cc3cccc(F)c3)cn2)CC1(C)C` [Example 123, 1-[5-(3-Fluoro-phenylethynyl)-pyrimidin-2-yl]-3,4,4-trimethyl-imidazolidin-2-one] are 18 nM and 30%.
With `CCN1C(=O)N(c2ncc(C#Cc3cccc(F)c3)cn2)CC1(C)C` [Example 144, 1-[5-(3-Fluoro-phenylethynyl)-pyrimidin-2-yl]-3-ethyl-4,4-dimethyl-imidazolidin-2-one], the EC50 came out at 31 nM and the Emax amounted to 58%.

(Values after US9315498B2, “Arlethynyl derivatives” (Hoffmann-La Roche Inc., priority 2010, dated 2016).)
